Reference: patent publication US4925861A, “Carboxystyrene derivatives and drugs containing them as effective ingredients” (Mitsubishi Kasei Corporation, priority 1987, dated 1990)
pIC50: −log10 of the molar value. Values belong to the molecule of their own block, whether it stands above or below them.

Columns and labels:
[1] = test system: SRS extracted from guinea pig lung; assay: in vitro SRS antagonistic activity (contraction of isolated guinea pig ileum); format: cell-based; details: Cavia porcellus, concentration reducing the control contraction (one unit of SRS) of guinea pig ileum by 50%, Tyrode's solution, 37° C., mepyramine and atropine present, read-out: Anti-SRS Activity (Minimal Effective Concentration)
Method: The terminal ileum was taken from a male Hartley guinea pig (200 to 450 g) and the lumen was washed. The ileum was set in 5 ml of a tissue bath containing Tyrode's solution: NaCl 136 mM, KCl 2.7 mM, NaHCO3 11.9 mM, MgCl2 1.05 mM, CaCl2 1.8 mM, NaH2 PO4 0.4 mM, and glucose 5.6 mM. The temperature in the bath was kept at 37° C. and the bath was aerated by 95% oxygen/5% carbon dioxide. The buffer solution also contained 10^-7 g/ml mepyramine and 5×10^-8 g/ml atropine in order to prevent the contraction caused by histamine and acetylcholine. Isometric measurement was done by an […] transducer (TD-112S, NIPPON KODEN, Japan) and change of tension in gram was recorded in a recticorder (RTG-4124, NIPPON KODEN, Japan). A tension of 0.5 g was passively loaded on the ileum. Thus, the contraction response of the ileum to SRS extracted from guinea pig lung was observed. The tonic contraction corresponding to one unit of SRS which corresponded to 5 ng of histamine was used as control. Varying concentrations of each compound to be tested were added to the tissue bath. The concentration of each compound to be tested which reduced the contraction of the control by 50%, IC50, was shown as a minimal effective concentration in M in Table 3.

[2] = Acute toxicity, oral, mice; details: mouse, in vivo, suspension in 1% tragacanth, ddy male mice, observed for 7 days
Text: A suspension of the compound according to the present invention in 1% tragacanth solution was orally administered to a group of 4 to 5 ddy male mice of 6 week old.

[3] = biological target: Phospholipase A2 from Porcine Pancreas (Sus scrofa, UniProt P00592); assay: in vitro phospholipase inhibiting activity (DPybPC fluorescence); details: pH 8, read-out: Phospholipase A2 Inhibition (%)
Chain of Phospholipase A2 from Porcine Pancreas (P00592 23-146): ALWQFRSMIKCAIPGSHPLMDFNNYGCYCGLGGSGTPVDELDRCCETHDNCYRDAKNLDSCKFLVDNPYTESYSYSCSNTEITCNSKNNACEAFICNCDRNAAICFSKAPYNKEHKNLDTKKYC

Compound: O=C(O)c1cccc(C=Cc2ccc3ccccc3n2)c1 [Compound 3]
pIC50 [1]: 7.30

Compound: CC(C)c1csc(C=Cc2cccc(C(=O)O)c2)n1 [Compound 5, 3-(2-(4-isopropyl-2-thiazolyl))ethenylbenzoic acid]
pIC50 [1]: 7.30

Compound: CC(C)(CNC(=O)c1cccc(C=Cc2nc3ccccc3s2)c1)C(=O)O [Compound 7]
pIC50 [1]: 7.30
LD50 at 168 h [2]: > 700 mg/kg

Compound: CCCc1csc(C=Cc2cccc(C(=O)NCC(CC)(CC)C(=O)O)c2)n1 [Compound 19, 3-(N-(3-(2-(4-propyl-2-thiazolyl))ethenyl)benzoyl)amino-2,2-diethylpropionic acid]
LD50 at 168 h [2]: > 1000 mg/kg

Compound: CC(C)c1csc(C=Cc2cccc(C(=O)NCC3(C(=O)O)CCCCC3)c2)n1 [Compound 22, 3-(N-(3-(2-(4-isopropyl-2-thiazolyl))ethenyl)benzoyl)amino-2-spiro-l'-cyclohexanepropionic acid]
inhibition at 10 µM [3]: 74%

Continued, values first:

pIC50 [1]: 6.70
Compound: O=C(O)c1cccc(C=Cc2nc3ccccc3s2)c1 [Compound 1, 3-(2-(2-benzthiazolyl))ethenylbenzoic acid]

pIC50 [1]: 7.70
Compound: CCCc1csc(C=Cc2cccc(C(=O)O)c2)n1 [Compound 2]

pIC50 [1]: 5.00
Compound: O=C(O)CCCNC(=O)c1cccc(C=Cc2nc3ccccc3s2)c1 [Compound 6, 4-(N-(3-(2-(2-benzthiazolyl))ethenyl)benzoyl)aminobutyric acid]
